# Measurements: US8637252B2, “Methods and compositions for determining altered susceptibility of HIV-1 to anti-HIV drugs” (Monogram Biosciences, Inc., priority 2011, dated 2014)
# Several values for one entry are separate records, joined by “and”; a condition that tells them apart may be missing. Equal entries are not always repeated.
# System: HIV-1 (patient-derived POL segment)
# Test: phenotypic drug resistance test, resistance test vectors with patient-derived POL segment (entire pol gene), luciferase, 293 cells
# Format: cell-based
# Source text: Patient-derived segment(s) corresponding to the entire pol gene, encoding HIV protease, reverse transcriptase (including RNAse H), and integrase (hereinafter “POL”), the portion of pol encoding amino acids 1-305 of reverse transcriptase (hereinafter “PR-RT”), the portion of pol encoding amino acids 319-440 of reverse transcriptase (including RNAse H), and integrase (hereinafter “RHIN”), were amplified by the reverse transcription-polymerase chain reaction method (RT-PCR) using viral RNA isolated from viral particles present in the plasma or serum of HIV-infected individuals as described below. The portion of pol encoding protease, amino acids 1-531 of reverse transcriptase (including RNase H) (hereinafter “PRRT-RH”), or the portion of pol encoding protease, reverse transcriptase (including RNAse H) and integrase (hereinafter “PRRT-RHIN”), were assembled from amplicons described above by standard recombinant DNA techniques involving a KpnI restriction site at amino acid 400 or a Pin A1 site at amino acid 315.
# Virus was pelleted by centrifugation at 20,400×g for 60 min from plasma (typically, 1 ml) prepared from blood samples collected in evacuated tubes containing either EDTA, acid-citrate dextrose, or heparin as an anticoagulant. Virus particles were disrupted by resuspending the pellets in 200 [1.1 of lysis buffer (4 M guanidine thiocyanate, 0.1 M Tris HCl (pH 8.0), 0.5% sodium lauryl sarcosine, 1% dithiothreitol). RNA was extracted from viral lysates by using oligo(dT) linked to magnetic beads (Dynal, Oslo, Norway). Reverse transcription was performed with Superscript III (Invitrogen) at 50 degrees for 1 hour using primer 1.
# From the resultant cDNA either POL or RHIN sequences were amplified using the Advantage High Fidelity PCR kit (BD Biosciences; Clontech). POL amplification products are made using forward Primer 3 containing an Apal site and reverse Primer 4 containing a Xho 1 site. RHIN amplification products are made using forward Primer 2 containing a P1NA1 site and reverse Primer 4 containing a Xho 1 site.
# A retroviral vector designed to measure antiretroviral drug susceptibility was constructed by using an infectious molecular clone of HIV-1. The vector, referred to herein as an indicator gene viral vector (IGVV), is replication defective and contains a luciferase expression cassette inserted within a deleted region of the envelope (env) gene. The IGVV is described in U.S. Pat. No. 5,837,464 (International Publication Number WO 97/27319) which is hereby incorporated by reference in its entirety. This retroviral vector was further modified to allow insertion of either the entire pol gene (POL) or the portion of poi encoding amino acids 319-440 of reverse transcriptase, the RNase H portion of reverse transcriptase, and integrase (REIN) by engineering an Xho l restriction enzyme recognition site into vif. Prior to doing this, an Xho 1 site in nef was deleted. Resistance Test vectors (RTVs) were constructed by incorporating amplified POL or RHIN into the IGVV by using Apal and Xhol or PinAI and Xho 1 restriction sites respectively. RTVs were prepared as libraries (pools) in order to capture and preserve the pol or RHIN sequence heterogeneity of the virus in the patient. POL amplification products were digested with Apal and Xhol, purified by agarose gel electrophoresis, and ligated to ApaI- and Xhol-digested IGVV DNA. RHIN amplification products were digested with PinAI and Xho/, purified by agarose gel electrophoresis, and ligated to PinAI and Xhol-digested IGVV DNA. Ligation reactions were used to transform competent Escherichia coli (Invitrogen, Carlsbad, Calif.). An aliquot of each transformation was plated onto agar, and colony counts were used to estimate the number of patient-derived segments represented in each RTV library. RTV libraries that comprised less than 50 members are not considered representative of the patient virus. […]
# [1] = Sample 47 (K103K/N, V106V/A, Y181Y/C, G190G/A)
# [2] = Sample 58 (K103N, Y181Y/C, G190G/A)
# [3] = Sample 62 (K103H, P225P/H, T369T/I)
# [4] = Sample 90 (K103K/N, Y181C, G190A)
smiles,measurement,setting,value
"CC(C)Nc1cccnc1N1CCN(C(=O)c2cc3cc(NS(C)(=O)=O)ccc3[nH]2)CC1 [DLV, delavirdine]","fold change in IC50, pol",Sample 31 (K103N),28.0 fold
same,pol/PR-RT ratio,Sample 31 (K103N),1.7
same,"fold change in IC50, pol",Sample 33 (K103S),5.7 fold
same,pol/PR-RT ratio,Sample 33 (K103S),0.7
same,"fold change in IC50, pol",Sample 34,0.4 fold
same,pol/PR-RT ratio,Sample 34,1.0
same,"fold change in IC50, pol",Sample 35 (K103H),5.4 fold
same,pol/PR-RT ratio,Sample 35 (K103H),0.8
same,"fold change in IC50, pol",Sample 36 (K103K/W),1.9 fold
same,pol/PR-RT ratio,Sample 36 (K103K/W),0.2
same,"fold change in IC50, pol",Sample 38 (K103N),66.0 fold
same,pol/PR-RT ratio,Sample 38 (K103N),0.5
same,"fold change in IC50, pol",Sample 39 (T369A),1.2 fold
same,pol/PR-RT ratio,Sample 39 (T369A),5.1
same,"fold change in IC50, pol",Sample 42 (G190G/A),0.2 fold
same,pol/PR-RT ratio,Sample 42 (G190G/A),0.5
same,"fold change in IC50, pol",Sample 45,0.1 fold
same,pol/PR-RT ratio,Sample 45,0.7
same,"fold change in IC50, pol",[1],5.4 fold
same,pol/PR-RT ratio,[1],0.9
same,"fold change in IC50, pol",Sample 50 (K103N),65.4 fold
same,pol/PR-RT ratio,Sample 50 (K103N),0.3
same,"fold change in IC50, pol",Sample 51,0.3 fold
same,pol/PR-RT ratio,Sample 51,0.9
same,"fold change in IC50, pol",Sample 52,2.7 fold
same,pol/PR-RT ratio,Sample 52,0.8
same,"fold change in IC50, pol",[2],250.0 fold
same,pol/PR-RT ratio,[2],1.7
same,"fold change in IC50, pol",[3],140.0 fold and 140.00 fold
same,pol/PR-RT ratio,[3],8.8
same,"fold change in IC50, pol",Sample 64 (T369T/A),0.3 fold
same,pol/PR-RT ratio,Sample 64 (T369T/A),0.2
same,"fold change in IC50, pol",Sample 69,1.8 fold
same,pol/PR-RT ratio,Sample 69,1.2
same,"fold change in IC50, pol",Sample 72,1.2 fold
same,pol/PR-RT ratio,Sample 72,1.4
same,"fold change in IC50, pol","Sample 80 (K103K/N, Y181Y/C)",22.0 fold
same,pol/PR-RT ratio,"Sample 80 (K103K/N, Y181Y/C)",0.3
same,"fold change in IC50, pol","Sample 81 (K103N, P225H)",9.5 fold
same,pol/PR-RT ratio,"Sample 81 (K103N, P225H)",0.8
same,"fold change in IC50, pol",Sample 84,0.5 fold
same,pol/PR-RT ratio,Sample 84,0.6
same,"fold change in IC50, pol",Sample 85,69.0 fold
same,pol/PR-RT ratio,Sample 85,2.7
same,"fold change in IC50, pol",Sample 87,0.7 fold
same,pol/PR-RT ratio,Sample 87,0.9
same,"fold change in IC50, pol","Sample 89 (L1001, K103N)",250.0 fold
same,pol/PR-RT ratio,"Sample 89 (L1001, K103N)",1.0
same,"fold change in IC50, pol",[4],4.8 fold
same,pol/PR-RT ratio,[4],1.1
same,"fold change in IC50, pol",Sample 92,0.8 fold
same,pol/PR-RT ratio,Sample 92,0.8
same,"fold change in IC50, pol",Sample 93,0.2 fold
same,pol/PR-RT ratio,Sample 93,0.6
"O=C1Nc2ccc(Cl)cc2[C@@](C#CC2CC2)(C(F)(F)F)O1 [EFV, efavirenz]","fold change in IC50, pol",Sample 31 (K103N),56.0 fold
same,pol/PR-RT ratio,Sample 31 (K103N),2.5
same,"fold change in IC50, pol",Sample 33 (K103S),5.9 fold
same,pol/PR-RT ratio,Sample 33 (K103S),0.8
same,"fold change in IC50, pol",Sample 34,0.6 fold
same,pol/PR-RT ratio,Sample 34,1.4
same,"fold change in IC50, pol",Sample 35 (K103H),9.5 fold
same,pol/PR-RT ratio,Sample 35 (K103H),1.0
same,"fold change in IC50, pol",Sample 36 (K103K/W),2.2 fold
same,pol/PR-RT ratio,Sample 36 (K103K/W),0.3
same,"fold change in IC50, pol",Sample 38 (K103N),27.0 fold
same,pol/PR-RT ratio,Sample 38 (K103N),0.6
same,"fold change in IC50, pol",Sample 39 (T369A),1.0 fold
same,pol/PR-RT ratio,Sample 39 (T369A),4.0
same,"fold change in IC50, pol",Sample 42 (G190G/A),1.1 fold
same,pol/PR-RT ratio,Sample 42 (G190G/A),0.3
same,"fold change in IC50, pol",Sample 45,0.2 fold
same,pol/PR-RT ratio,Sample 45,1.0
same,"fold change in IC50, pol",[1],30.2 fold
same,pol/PR-RT ratio,[1],0.2
same,"fold change in IC50, pol",Sample 50 (K103N),24.1 fold
same,pol/PR-RT ratio,Sample 50 (K103N),0.4
same,"fold change in IC50, pol",Sample 51,0.5 fold
same,pol/PR-RT ratio,Sample 51,1.1
same,"fold change in IC50, pol",Sample 52,1.1 fold
same,pol/PR-RT ratio,Sample 52,0.8
same,"fold change in IC50, pol",[2],153.9 fold
same,pol/PR-RT ratio,[2],5.8
same,"fold change in IC50, pol",[3],202 fold and 202.0 fold and 202.00 fold
same,pol/PR-RT ratio,[3],10.1
same,"fold change in IC50, pol",Sample 64 (T369T/A),0.3 fold
same,pol/PR-RT ratio,Sample 64 (T369T/A),0.3
same,"fold change in IC50, pol",Sample 69,1.2 fold
same,pol/PR-RT ratio,Sample 69,1.6
same,"fold change in IC50, pol",Sample 72,0.8 fold
same,pol/PR-RT ratio,Sample 72,1.5
same,"fold change in IC50, pol","Sample 80 (K103K/N, Y181Y/C)",6.3 fold
same,pol/PR-RT ratio,"Sample 80 (K103K/N, Y181Y/C)",0.6
same,"fold change in IC50, pol","Sample 81 (K103N, P225H)",136.0 fold
same,pol/PR-RT ratio,"Sample 81 (K103N, P225H)",1.4
same,"fold change in IC50, pol",Sample 84,0.7 fold
same,pol/PR-RT ratio,Sample 84,1.0
same,"fold change in IC50, pol",Sample 85,77.0 fold
same,pol/PR-RT ratio,Sample 85,3.5
same,"fold change in IC50, pol",Sample 87,1.0 fold
same,pol/PR-RT ratio,Sample 87,1.1
same,"fold change in IC50, pol","Sample 89 (L1001, K103N)",700.0 fold
same,pol/PR-RT ratio,"Sample 89 (L1001, K103N)",1.0
same,"fold change in IC50, pol",[4],66.0 fold
same,pol/PR-RT ratio,[4],1.3
same,"fold change in IC50, pol",Sample 92,0.8 fold
same,pol/PR-RT ratio,Sample 92,0.8
same,"fold change in IC50, pol",Sample 93,0.7 fold
same,pol/PR-RT ratio,Sample 93,0.8
"Cc1ccnc2c1NC(=O)c1cccnc1N2C1CC1 [NVP, nevirapine]","fold change in IC50, pol",Sample 31 (K103N),400.0 fold
same,pol/PR-RT ratio,Sample 31 (K103N),4.5
same,"fold change in IC50, pol",Sample 33 (K103S),25.1 fold
same,pol/PR-RT ratio,Sample 33 (K103S),1.1
same,"fold change in IC50, pol",Sample 34,0.3 fold
same,pol/PR-RT ratio,Sample 34,1.3
same,"fold change in IC50, pol",Sample 35 (K103H),28.3 fold
same,pol/PR-RT ratio,Sample 35 (K103H),1.1
same,"fold change in IC50, pol",Sample 36 (K103K/W),2.4 fold
same,pol/PR-RT ratio,Sample 36 (K103K/W),0.2
same,"fold change in IC50, pol",Sample 38 (K103N),81.0 fold
same,pol/PR-RT ratio,Sample 38 (K103N),0.7
same,"fold change in IC50, pol",Sample 39 (T369A),2.8 fold
same,pol/PR-RT ratio,Sample 39 (T369A),9.0
same,"fold change in IC50, pol",Sample 42 (G190G/A),7.1 fold
same,pol/PR-RT ratio,Sample 42 (G190G/A),0.2
same,"fold change in IC50, pol",Sample 45,0.3 fold
same,pol/PR-RT ratio,Sample 45,1.1
same,"fold change in IC50, pol",[1],400.0 fold
same,pol/PR-RT ratio,[1],1.0
same,"fold change in IC50, pol",Sample 50 (K103N),72.7 fold
same,pol/PR-RT ratio,Sample 50 (K103N),0.5
same,"fold change in IC50, pol",Sample 51,0.7 fold
same,pol/PR-RT ratio,Sample 51,1.6
same,"fold change in IC50, pol",Sample 52,1.8 fold
same,pol/PR-RT ratio,Sample 52,0.9
same,"fold change in IC50, pol",[2],400.0 fold
same,pol/PR-RT ratio,[2],1.0
same,"fold change in IC50, pol",[3],400.0 fold and 400.00 fold
same,pol/PR-RT ratio,[3],6.3
same,"fold change in IC50, pol",Sample 64 (T369T/A),0.3 fold
same,pol/PR-RT ratio,Sample 64 (T369T/A),0.3
same,"fold change in IC50, pol",Sample 69,1.6 fold
same,pol/PR-RT ratio,Sample 69,1.6
same,"fold change in IC50, pol",Sample 72,1.1 fold
same,pol/PR-RT ratio,Sample 72,1.6
same,"fold change in IC50, pol","Sample 80 (K103K/N, Y181Y/C)",17.0 fold
same,pol/PR-RT ratio,"Sample 80 (K103K/N, Y181Y/C)",0.4
same,"fold change in IC50, pol","Sample 81 (K103N, P225H)",114.0 fold
same,pol/PR-RT ratio,"Sample 81 (K103N, P225H)",1.2
same,"fold change in IC50, pol",Sample 84,0.9 fold
same,pol/PR-RT ratio,Sample 84,1.2
same,"fold change in IC50, pol",Sample 85,400.0 fold
same,pol/PR-RT ratio,Sample 85,3.0
same,"fold change in IC50, pol",Sample 87,1.4 fold
same,pol/PR-RT ratio,Sample 87,1.7
same,"fold change in IC50, pol","Sample 89 (L1001, K103N)",400.0 fold
same,pol/PR-RT ratio,"Sample 89 (L1001, K103N)",10.8
same,"fold change in IC50, pol",[4],400.0 fold
same,pol/PR-RT ratio,[4],1.0
same,"fold change in IC50, pol",Sample 92,1.1 fold
same,pol/PR-RT ratio,Sample 92,1.0
same,"fold change in IC50, pol",Sample 93,1.4 fold
same,pol/PR-RT ratio,Sample 93,0.9
